Data as given in patent publication EP0348967A2, “Synthetic lung surfactant preparation comprising lipids and polypeptides” (MERRELL PHARMACEUTICALS INC., priority 1988, dated 1990).

System: adult rat lung
Assay: adult rat lung model (pressure-volume curve, lung compliance)
Type: in vivo
Details: pressure-volume curves (Figs. 1 and 2), three ml of the preparations of Examples 1 and 2 tested
Procedure: The synthetic surfactant preparations were tested in the adult rat lung model (Ikegami, et al., (1979) Pediatr. Res. 13, 777-780). Reference I and Reference II, consisting of DPPC, alone and dog lung surfactant, respectively, were employed as reference standards. Three ml of the preparations from each of examples 1 and 2 were tested in an adult rat lung model. […] Results are illustrated in Figures 1 and 2.

CCCCCCCCCCCCCCCC(=O)OC[C@H](COP(=O)([O-])OCC[N+](C)(C)C)OC(=O)CCCCCCCCCCCCCCC [Reference I, dipalmitoylphosphatidylcholine]
compliance of the rat lung: no effect
